Toxic doses and inconclusive results are not listed.
System: BDF1 mice, P388 leukemia ip, median survival T/C
Experiment: NCI In Vivo Anticancer Drug Screen. Data for tumor model P388 Leukemia (intraperitoneal) in B6D2F1 (BDF1) mice
Details: endpoint: median survival time, higher = longer survival
Summary of the method: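 Steps: implant the tumour, treat one group with compound and another with vehicle, record survival, then divide treated by control.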

[1] = dose: 50.0 mg/kg/injection, schedule: Q01DX009 (ip), vehicle: saline with Tween-80
[2] = dose: 100.0 mg/kg/injection, schedule: Q01DX009 (ip), vehicle: saline
[3] = dose: 200.0 mg/kg/injection, schedule: Q01DX009 (ip), vehicle: saline
[4] = dose: 100.0 mg/kg/injection, schedule: Q01DX009 (ip), vehicle: Klucel (hydroxypropylcellulose) (HPC)
[5] = dose: 100.0 mg/kg/injection, schedule: Q04DX003 (ip), vehicle: Klucel (hydroxypropylcellulose) (HPC)
[6] = dose: 200.0 mg/kg/injection, schedule: Q01DX009 (ip), vehicle: Klucel (hydroxypropylcellulose) (HPC)
[7] = dose: 200.0 mg/kg/injection, schedule: Q04DX003 (ip), vehicle: Klucel (hydroxypropylcellulose) (HPC)
[8] = dose: 400.0 mg/kg/injection, schedule: Q01DX009 (ip), vehicle: Klucel (hydroxypropylcellulose) (HPC)

For `COc1cc2c(cc1OC)C(C#N)N(C(=O)c1ccccc1)C=C2` (stereo not given), the T/C (dose: 25.0 mg/kg/injection, schedule: Q04DX003 (ip), vehicle: water) was 114 % of control, the T/C (dose: 50.0 mg/kg/injection, schedule: Q04DX003 (ip), vehicle: water) was 99 % of control and the T/C (dose: 100.0 mg/kg/injection, schedule: Q04DX003 (ip), vehicle: water) was 94 % of control. The T/C (dose: 200.0 mg/kg/injection, schedule: Q04DX003 (ip), vehicle: water) was 94 % of control and the T/C (dose: 400.0 mg/kg/injection, schedule: Q04DX003 (ip), vehicle: water) was 112 % of control.

With `CC(C)CNS(=O)(=O)c1ncnc2nc[nH]c12` the T/C [1] was 109 % of control and the T/C (dose: 100.0 mg/kg/injection, schedule: Q01DX009 (ip), vehicle: saline with Tween-80) was 109 % of control.

For `C[C@]12CCC(=O)C=C1CC[C@@H]1[C@@H]2[C@@H](O)C[C@@]2(C)[C@H]1CC[C@]2(O)C(=O)COC(=O)CCC(=O)O`, the T/C (dose: 50.0 mg/kg/injection, schedule: Q01DX009 (sc), vehicle: steriod suspending solution) was 111 % of control, the T/C (dose: 100.0 mg/kg/injection, schedule: Q01DX009 (sc), vehicle: steriod suspending solution) was 111 % of control and the T/C (dose: 100.0 mg/kg/injection, schedule: Q04DX003 (sc), vehicle: steriod suspending solution) was 100 % of control. For the same molecule, the T/C (dose: 200.0 mg/kg/injection, schedule: Q01DX009 (sc), vehicle: steriod suspending solution) was 116 % of control, the T/C (dose: 200.0 mg/kg/injection, schedule: Q04DX003 (sc), vehicle: steriod suspending solution) was 104 % of control and the T/C (dose: 400.0 mg/kg/injection, schedule: Q01DX009 (sc), vehicle: steriod suspending solution) was 111 % of control. The T/C (dose: 400.0 mg/kg/injection, schedule: Q04DX003 (sc), vehicle: steriod suspending solution) was 100 % of control.

`CCOC(=O)C1(C(=O)OCC)C2CC=CCC21` (stereo not given) was tested, and the T/C [2] was 95 % of control, the T/C [3] was 100 % of control and the T/C (dose: 400.0 mg/kg/injection, schedule: Q01DX009 (ip), vehicle: saline) was 100 % of control.

For `O=CNNc1ccc([N+](=O)[O-])cc1`, the T/C [4] was 90 % of control, the T/C [5] was 105 % of control and the T/C [6] was 100 % of control. For the same molecule, the T/C [7] was 100 % of control, the T/C [8] was 104 % of control and the T/C (dose: 400.0 mg/kg/injection, schedule: Q04DX003 (ip), vehicle: Klucel (hydroxypropylcellulose) (HPC)) was 105 % of control.

In the case of `NC(CCC(=O)NC(CSC(c1ccccc1)(c1ccccc1)c1ccc(F)cc1)C(=O)NCC(=O)O)C(=O)O` (stereo not given), the T/C (dose: 115.0 mg/kg/injection, schedule: Q04DX003 (ip), vehicle: saline) is reported as 118 % of control, the T/C (dose: 177.0 mg/kg/injection, schedule: Q04DX003 (ip), vehicle: saline with Tween-80) is reported as 118 % of control and the T/C (dose: 266.0 mg/kg/injection, schedule: Q04DX003 (ip), vehicle: saline with Tween-80) is reported as 159 % of control. The T/C (dose: 266.0 mg/kg/injection, schedule: Q04DX003 (ip), vehicle: saline) was 181 % of control and the T/C (dose: 400.0 mg/kg/injection, schedule: Q04DX003 (ip), vehicle: saline with Tween-80) was 231 % of control.

With `[NH-]S(=O)(=O)O.[NH-]S(=O)(=O)O.[NH2-].[NH2-].[Pt+4]` the T/C (dose: 10.0 mg/kg/injection, schedule: Q01DX009 (ip), vehicle: saline with Tween-80) was 90 % of control, the T/C (dose: 10.0 mg/kg/injection, schedule: Q04DX003 (ip), vehicle: saline) was 100 % of control and the T/C (dose: 20.0 mg/kg/injection, schedule: Q01DX009 (ip), vehicle: saline with Tween-80) was 100 % of control. For the same molecule, the T/C (dose: 20.0 mg/kg/injection, schedule: Q04DX003 (ip), vehicle: saline) was 100 % of control, the T/C (dose: 40.0 mg/kg/injection, schedule: Q01DX009 (ip), vehicle: saline with Tween-80) was 90 % of control and the T/C (dose: 40.0 mg/kg/injection, schedule: Q04DX003 (ip), vehicle: saline) was 108 % of control.

`O=C(O)c1cccc(S(=O)(=O)N(CCO)CCO)c1` was tested, and the T/C (dose: 50.0 mg/kg/injection, schedule: Q04DX003 (ip), vehicle: saline with Tween-80) was 100 % of control, the T/C (dose: 100.0 mg/kg/injection, schedule: Q04DX003 (ip), vehicle: saline with Tween-80) was 90 % of control and the T/C (dose: 200.0 mg/kg/injection, schedule: Q04DX003 (ip), vehicle: saline with Tween-80) was 95 % of control.

In the case of `C[N+]1=C2CCCCC2=C(N)CC1`, the T/C (dose: 6.25 mg/kg/injection, schedule: Q01DX009 (ip), vehicle: saline) is reported as 110 % of control, the T/C (dose: 6.25 mg/kg/injection, schedule: Q04DX003 (ip), vehicle: saline sonified) is reported as 100 % of control and the T/C (dose: 12.5 mg/kg/injection, schedule: Q01DX009 (ip), vehicle: saline) is reported as 100 % of control. The T/C (dose: 12.5 mg/kg/injection, schedule: Q04DX003 (ip), vehicle: saline sonified) was 100 % of control, the T/C (dose: 25.0 mg/kg/injection, schedule: Q01DX009 (ip), vehicle: saline) was 110 % of control and the T/C (dose: 25.0 mg/kg/injection, schedule: Q04DX003 (ip), vehicle: saline sonified) was 100 % of control.

In the case of `O=C(O)c1c(Cl)c(Cl)c(Cl)c(C(=O)O)c1Cl`, the T/C (dose: 50.0 mg/kg/injection, schedule: Q01DX009 (ip), vehicle: Klucel (hydroxypropylcellulose) (HPC)) is reported as 104 % of control, the T/C (dose: 50.0 mg/kg/injection, schedule: Q04DX003 (ip), vehicle: Klucel (hydroxypropylcellulose) (HPC)) is reported as 109 % of control and the T/C [4] is reported as 100 % of control. For the same molecule, the T/C [5] was 95 % of control and the T/C [7] was 100 % of control.

`CN1CC(=O)N=C1N` was tested, and the T/C [4] was 90 % of control, the T/C [6] was 95 % of control and the T/C [8] was 100 % of control.

For `CC1C[N+](C)(C)NC1=O` (stereo not given), the T/C (dose: 50.0 mg/kg/injection, schedule: Q01DX001 (ip), vehicle: saline) was 100 % of control and the T/C (dose: 200.0 mg/kg/injection, schedule: Q01DX001 (ip), vehicle: saline) was 100 % of control.

`CC(=O)NC1(C(=O)O)CSSC1` was tested, and the T/C (dose: 12.5 mg/kg/injection, schedule: Q01DX005 (ip), vehicle: saline) was 107 % of control, the T/C (dose: 25.0 mg/kg/injection, schedule: Q01DX005 (ip), vehicle: saline) was 106 % of control and the T/C (dose: 25.0 mg/kg/injection, schedule: Q04DX003 (ip), vehicle: saline) was 91 % of control. For the same molecule, the T/C (dose: 50.0 mg/kg/injection, schedule: Q01DX005 (ip), vehicle: saline) was 104 % of control, the T/C (dose: 50.0 mg/kg/injection, schedule: Q04DX003 (ip), vehicle: saline) was 97 % of control and the T/C (dose: 100.0 mg/kg/injection, schedule: Q01DX005 (ip), vehicle: saline) was 100 % of control. The T/C (dose: 100.0 mg/kg/injection, schedule: Q04DX003 (ip), vehicle: saline) was 118 % of control, the T/C (dose: 200.0 mg/kg/injection, schedule: Q01DX005 (ip), vehicle: saline) was 104 % of control and the T/C (dose: 200.0 mg/kg/injection, schedule: Q04DX003 (ip), vehicle: saline) was 114 % of control. The T/C (dose: 400.0 mg/kg/injection, schedule: Q01DX005 (ip), vehicle: saline) was 97 % of control and the T/C (dose: 400.0 mg/kg/injection, schedule: Q04DX003 (ip), vehicle: saline) was 123 % of control.

With `COc1cccc2c1C(=O)c1c(O)c3c(c(O)c1C2=O)C[C@@](O)(C(=O)CO)C[C@@H]3OC1CC(NC(=O)C(F)(F)F)C(O)C(C)O1` (stereo not given in full) the T/C (dose: 3.13 mg/kg/injection, schedule: Q04DX009 (ip), vehicle: other) was 113 % of control, the T/C (dose: 6.25 mg/kg/injection, schedule: Q04DX009 (ip), vehicle: other) was 121 % of control and the T/C (dose: 12.5 mg/kg/injection, schedule: Q04DX009 (ip), vehicle: other) was 123 % of control.

For `NCC(=O)Nc1ccc(O)cc1`, the T/C (dose: 79.0 mg/kg/injection, schedule: Q04DX003 (ip), vehicle: saline with Tween-80) was 100 % of control, the T/C (dose: 118.0 mg/kg/injection, schedule: Q04DX003 (ip), vehicle: saline with Tween-80) was 104 % of control and the T/C (dose: 176.0 mg/kg/injection, schedule: Q04DX003 (ip), vehicle: saline with Tween-80) was 100 % of control. For the same molecule, the T/C (dose: 400.0 mg/kg/injection, schedule: Q01DX009 (ip), vehicle: saline with Tween-80) was 118 % of control and the T/C (dose: 600.0 mg/kg/injection, schedule: Q01DX009 (ip), vehicle: saline with Tween-80) was 90 % of control.

For `CSc1nc(=O)c(=O)nc(Nc2ccccc2)n1-c1ccccc1`, the T/C (dose: 12.5 mg/kg/injection, schedule: Q01DX009 (ip), vehicle: saline with Tween-80) was 88 % of control, the T/C (dose: 25.0 mg/kg/injection, schedule: Q01DX009 (ip), vehicle: saline with Tween-80) was 95 % of control and the T/C [1] was 88 % of control.

In the case of `Nc1nc(=S)c2ncn(C3OC(COC(=O)c4ccc(Cl)cc4)C(OC(=O)c4ccc(Cl)cc4)C3OC(=O)c3ccc(Cl)cc3)c2[nH]1` (stereo not given), the T/C (dose: 132.0 mg/kg/injection, schedule: Q04DX003 (ip), vehicle: saline with Tween-80) is reported as 118 % of control, the T/C (dose: 200.0 mg/kg/injection, schedule: Q01DX009 (ip), vehicle: saline with Tween-80) is reported as 100 % of control and the T/C (dose: 300.0 mg/kg/injection, schedule: Q04DX003 (ip), vehicle: saline with Tween-80) is reported as 122 % of control.

For `CC(=O)Nc1ccc2c3c(ccc([N+](=O)[O-])c13)CC2`, the T/C [2] was 90 % of control and the T/C [3] was 95 % of control.

Reference: PubChem BioAssay AID328 (DTP/NCI, 2004)
